Literature values in US10744110B2, “Methods of treating lung cancer” (Abraxis BioScience, LLC, priority 2013, dated 2020).

Tested on: NSCLC
Settings: single agent

## CCC1=C[C@@H]2CN(C1)Cc1c([nH]c3ccccc13)[C@@](C(=O)OC)(c1cc3c(cc1OC)N(C)[C@H]1[C@@](O)(C(=O)OC)[C@H](OC(C)=O)[C@]4(CC)C=CCN5CC[C@]31[C@@H]54)C2 [vinorelbine]
  response rate (RR): 29.4%
